The values below are quoted from earlier work in patent US8445278B2, “Process for producing decellularized biological tissues” (Medtronic, Inc., priority 2005, dated 2013).

Each structure is given as a SMILES string.

The data set concerns fresh rat hepatocytes.

Broadly, the IC50 is the point on the concentration scale where inhibition reaches its midpoint. Regarding `CCCCCCCCCCCCOS(=O)(=O)[O-].[Na+]` [SDS, sodium dodecyl sulphate], the IC50 is 49 µM and the “concentration at which SDS is toxic” value was not below 10 µM.
